The results in this text go back to patent EP4810040A2, “INHIBITORS OF APOL1 AND METHODS OF USING SAME” (priority 2020, dated 2022).

For the assay, the target named is T1, APOL1 G1 (Homo sapiens, UniProt O14791, I384M/S342G).
T1 sequence (O14791 28-398 S342G/I384M): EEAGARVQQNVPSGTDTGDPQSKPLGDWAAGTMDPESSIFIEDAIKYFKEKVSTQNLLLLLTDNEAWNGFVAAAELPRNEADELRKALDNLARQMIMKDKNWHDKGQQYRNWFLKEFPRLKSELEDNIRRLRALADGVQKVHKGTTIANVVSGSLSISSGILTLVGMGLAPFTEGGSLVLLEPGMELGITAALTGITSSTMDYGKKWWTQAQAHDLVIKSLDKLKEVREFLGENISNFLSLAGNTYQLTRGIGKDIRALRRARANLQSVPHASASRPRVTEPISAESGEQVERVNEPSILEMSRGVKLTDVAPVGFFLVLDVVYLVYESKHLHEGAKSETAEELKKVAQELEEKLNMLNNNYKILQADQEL
Briefly: MultiTox-Fluor Multiplex Cytotoxicity Assay, tet-inducible APOL1 G1 T-REx-HEK293 cells. In kind it is cell-based. Also on record: expressed in transfected cells; host or cells: T-REx HEK293, clone G1 DC3.25 (pAAVS1-Puro-APOL1 G1). To be noted: for IC90: read-out: Multi-Tox Assay IC90; for Emax: read-out: Multi-Tox Assay Max Activity (%). As to the method:
The MultiTox-Fluor Multiplex Cytotoxicity Assay is a single-reagent-addition, homogeneous, fluorescence assay that measures the number of live and dead cells simultaneously in culture wells. The assay measures cell viability and cytotoxicity by detecting two distinct protease activities. The live-cell protease activity is restricted to intact viable cells and is measured using a fluorogenic, cell-permeant peptide glycyl-phenylalanylamino fluorocoumarin (GF-AFC) substrate. The substrate enters intact cells, where it is cleaved to generate a fluorescent signal proportional to the number of living cells. […] A second, cell-impermeant, fluorogenic peptide substrate (bis-AAF-R110 Substrate) is used to measure dead-cell protease that has been released from cells that have lost membrane integrity. A ratio of dead to live cells is used to normalize data.
Briefly, the tet-inducible transgenic APOL1 T-REx-HEK293 cell lines were incubated with 50 ng/mL tet to induce APOL1 in the presence of 3-(2-(4-fluorophenyl)-1H-indol-3-yl)-N-((3S,4R)-4-hydroxy-2-oxopyrrolidin-3-yl)propenamide at […], 0.0045, 0.0015, 0.0005 µM in duplicate for 24 hours in a humidified 37°C incubator. The MultiTox reagent was added to each well and placed back in the incubator for an additional 30 minutes. The plate was read on the EnVision plate reader. A ratio of dead to live cells was used to normalize, and data was imported, analyzed and fit using Genedata Screener (Basel, Switzerland) software. Data was normalized using percent of control, no tet (100% viability), and 50 ng/mL tet treated (0% viability),and fit using Smart Fit. The reagents, methods, and complete protocol for the MultiTox assay are described below. Table 42. Reagents Used in the Multi-Tox Assay
Human embryonic kidney (HEK293) cell lines containing a tet-inducible expression system (T-REx™; Invitrogen, Carlsbad, CA) and Adeno-associated virus site 1 pAA VS1-Puro-APOL1 G0 or pAAVS1-Puro-APOL1 G1 or pAAVS1-Puro-APOL1 G2 Clones G0 DC2.13, G1 DC3.25, and G2 DC4.44 were grown in a T-225 flask at ~90% confluency in cell growth media (DMEM, 10% Tet-free FBS, 2 mM L-glutamine, 100 Units/mL penicillin-streptomycin, 5 µg/mL blasticidin S HCl, 1 µg/mL puromycin dihydrochloride). Cells were washed with DPBS and then trypsinized to dissociate from the flask. Media was used to quench the trypsin, cells were then pelleted at 200g and resuspended in fresh cell assay media (DMEM, 2% Tet-free FBS, 2 mM L-glutamine, 100 Units/mL penicillin-streptomycin). Cells were counted and diluted to 1.17 x 10^6 cells/mL. 20 µL of cells (23,400/well) were dispensed to every well of a 384-well Poly-D-Lysine coated plate using the Multidrop dispenser. The plates were then incubated at room temperature for one hour.
Tetracycline is needed to induce APOL1 expression. 1 mg/mL tet stock in water was diluted to 250 ng/mL (5X) in cell assay media. 60 µL of cell assay media (no tet control) was dispensed in columns 1 and 24, and 60 µL of 5X tet was dispensed in 384-PP-round bottom plate in columns 2 to 23 with the Multidrop dispenser.
Assay ready plates from the Global Compound Archive were ordered using template 384_APOL1Cell_DR10n2_50uM_v3. Compounds were dispensed at 200 nL in DMSO. The final top concentration was 10 µM with a 10 point 3-fold dilution in duplicate in the MultiTox assay.
20 µL were transferred from the 5X tet plate to the ARP and mixed, then 5 µL of 5X tet and the compounds were transferred to the cell plate and mixed using the Bravo. The cell plate was placed in the humidified 37°C 5% CO2 incubator for 24 hours.
The MultiTox-Fluor Multiplex Cytotoxicity Assay was performed in accordance with the manufacturer's protocol. […]

[1] abbreviates: HEK293, Multi-Tox Assay, APOL1 variant (G0/G1/G2) of the HEK293 cells not given.
[2] abbreviates: Multi-Tox Assay, APOL1 variant not given.

Like-named read-outs stand apart in the source and are kept apart here.

As for `COC(=O)Cn1cc([C@@H]2C[C@]3(C[C@H](C)N2)OC[C@@H](O)c2cc(Cl)sc23)nn1` [Compound 263], under setting [1], the 90% effect concentration (IC90) is over 500 nM. Besides, the “Multi-Tox Assay Max Activity (%)” value under setting [2] turned out to be 86.0%. For `C[C@H]1C[C@@]2(C[C@@H](c3cn(C)nn3)N1)OCCc1c2sc(C(F)(F)F)c1CO` [Compound 17, [(2'S,6'S,7S)-2'-methyl-6'-(1-methyltriazol-4-yl)-2-(trifluoromethyl)spiro[4,5-dihydrothieno[2,3-c]pyran-7,4'-piperidine]-3-yl]methanol], the IC90 under setting [1] was under 50 nM. Under setting [2], the Emax worked out at 100%. The corresponding values for `C[C@H]1C[C@@]2(C[C@@H](c3ccnnc3)N1)OCCc1cc(Cl)sc12` (racemic) [Compound 93] are under 50 nM and 99.3%.

Regarding `Cc1noc(C)c1Cn1cc([C@@H]2C[C@]3(C[C@H](C)N2)OC[C@@H](O)c2cc(Cl)sc23)nn1` [Compound 237], the IC90 under setting [1] fell in the range of 50 to 500 nM. As to `C[C@H]1C[C@@]2(C[C@@H](c3ccccn3)N1)OCCc1cc(Cl)sc12` (racemic) [Compound 83], the IC90 under setting [1] is under 50 nM. For the same compound, under setting [2], the Emax came to 99%. Regarding `[2H][13C]([2H])([2H])n1cc([C@@H]2[13CH2][C@]3(C[C@H](C)N2)OC[C@@H](O)c2cc(C(F)(F)F)sc23)nn1` [Compound 386, (2S,4S,4'S,6S)-2-methyl-6-(1-(methyl-^13C-d3)-1H-1,2,3-triazol-4-yl)-2'-(trifluoromethyl)-4',5'-dihydrospiro[piperidine-4,7'-thieno[2,3-c]pyran]-5-^13C-4'-ol], the IC90 (Multi-Tox Assay, APOL1 variant (G0/G1/G2) not stated in Table 46) was under 50 nM. For the setting “Multi-Tox Assay, APOL1 variant not stated in Table 46”, the Emax was 100%. As to `Cc1ncoc1[C@@H]1C[C@]2(C[C@H](C)N1)OCCc1cc(Cl)sc12` (racemic) [Compound 157], the concentration for an effect of 90% (IC90) under setting [1] was over 500 nM. Also, the “Multi-Tox Assay Max Activity (%)” value under setting [2] was 96.3%. As for `Cc1cc([C@@H]2C[C@]3(C[C@H](C)N2)OCCc2cc(Cl)sc23)[nH]n1` (racemic) [Compound 73], under setting [1], the IC90 is under 50 nM. In addition, the Emax under setting [2] worked out at 99.8%. With `C[C@H]1C[C@@]2(C[C@@H](c3cn(Cc4ccc(OC5CCOCC5)cc4)nn3)N1)OCC(F)(F)c1cc(Cl)sc12` [Compound 308], the IC90 under setting [1] was over 500 nM. Moreover, the “Multi-Tox Assay Max Activity (%)” value under setting [2] is 95.0%.

On to `COc1ccc(C(O)Cn2cc([C@@H]3C[C@]4(C[C@H](C)N3)OCC(F)(F)c3cc(Cl)sc34)nn2)cc1` (stereo partly drawn) [Compound 348], for which, under setting [1], the IC90 is over 500 nM. The “Multi-Tox Assay Max Activity (%)” value under setting [2] stood at 97.0%. Turning to `Cc1cc(Cn2cc([C@@H]3C[C@]4(C[C@H](C)N3)OC[C@@H](O)c3cc(Cl)sc34)nn2)ccn1` [Compound 296], under setting [1], the 90% effect concentration (IC90) is 50 to 500 nM.

As for `C[C@@H]1CC2(C[C@H](C)N1)OCCc1cc(C3CC(F)(F)C3)sc12` (single isomer, unassigned) [Compound 198], under setting [1], the IC90 lay within 50 to 500 nM. Further, the Emax under setting [2] came out at 98.7%. As to `C[C@H]1C[C@@]2(C[C@@H](c3cnn4ccccc34)N1)OCCc1cc(Cl)sc12` (racemic) [Compound 117], under setting [1], the IC90 was in the range of 50 to 500 nM.

For the compound `CC1CC2(CC(c3cncnc3)N1)OCCc1cc(Cl)sc12` (stereo not drawn) [Compound 45], the IC90 under setting [1] was under 50 nM. For the same compound, the “Multi-Tox Assay Max Activity (%)” value under setting [2] is listed as 100.0%. The corresponding values for `C[C@H]1C[C@@]2(C[C@@H](c3cn(Cc4ncnc5[nH]ccc45)nn3)N1)OC[C@@H](O)c1cc(Cl)sc12` [Compound 234] are 50 to 500 nM and 100.0%. For the compound `CCc1cc2c(s1)C1(CC(C)NC(c3cn(C)nn3)C1)OCC2` (single isomer, unassigned) [Compound 6], the IC90 under setting [1] is under 50 nM. In addition, the Emax under setting [2] was 99.7%. In the case of `C[C@H]1C[C@@]2(C[C@@H](c3cn(CCc4ccncn4)nn3)N1)OC[C@@H](O)c1cc(Cl)sc12` [Compound 262], the IC90 under setting [1] lay within 50 to 500 nM. Regarding `COCCOCCn1cc([C@@H]2C[C@]3(C[C@H](C)N2)OC[C@@H](O)c2cc(Cl)sc23)nn1` [Compound 229], the IC90 under setting [1] is 50 to 500 nM. In addition, the “Multi-Tox Assay Max Activity (%)” value under setting [2] is given as 98.0%. For the compound `C[C@H]1C[C@@]2(C[C@@H](c3cn(CCCO)nn3)N1)OCC(F)(F)c1cc(Cl)sc12` [Compound 359], the IC90 under setting [1] was under 50 nM. Further, the “Multi-Tox Assay Max Activity (%)” value under setting [2] is on record as 98.0%. On the same counts, the results for `C[C@H]1C[C@@]2(C[C@@H](c3cnccn3)N1)OCCc1cc(Cl)sc12` (racemic) [Compound 101] are under 50 nM and 100.0%. Turning to `C[C@H]1C[C@@]2(C[C@@H](C3CC3)N1)OCC(O)c1cc(Cl)sc12` (stereo partly drawn) [Compound 220, (2'S,6'S,7S)-2-chloro-2'-cyclopropyl-6'-methyl-spiro[4,5-dihydrothieno[2,3-c]pyran-7,4'-piperidine]-4-ol], the IC90 under setting [1] is under 50 nM. Moreover, the Emax under setting [2] amounted to 99.3%. Turning to `C[C@H]1C[C@@]2(C[C@@H](c3cnc(NC(C)(C)CO)nc3)N1)OCCc1cc(Cl)sc12` (racemic) [Compound 95], the IC90 under setting [1] is under 50 nM. Further, under setting [2], the Emax was 99.8%. The corresponding values for `CC1CC2(CC(c3cnn(C)n3)N1)OCCc1cc(Cl)sc12` (stereo not drawn) [Compound 38] are under 50 nM and 100%. Turning to `COc1cccc(C2CC3(CC(C)N2)OCCc2cc(Cl)sc23)n1` (mixture of isomers) [Compound 135], the IC90 under setting [1] was in the range of 50 to 500 nM. Further, under setting [2], the “Multi-Tox Assay Max Activity (%)” value is 98.0%. Turning to `COc1ccc(C2CC3(CC(C)N2)OCCc2cc(Cl)sc23)nn1` (mixture of isomers) [Compound 76], the IC90 under setting [1] is under 50 nM. Under setting [2], the Emax turned out to be 99.3%. For the compound `C[C@H]1CC2(C[C@@H](c3cn(C)nn3)N1)OCC(C)(C)c1sc(Cl)cc12` (single isomer, unassigned) [Compound 15], the IC90 under setting [1] is under 50 nM. As to `C[C@H]1C[C@@]2(C[C@@H](c3cnc(-c4ccccc4)o3)N1)OCCc1cc(Cl)sc12` (racemic) [Compound 70], the IC90 under setting [1] was under 50 nM. The Emax under setting [2] was found to be 99.3%.

Take `C[C@H]1C[C@@]2(C[C@@H](c3ccc(N(C)C)nc3)N1)OCCc1cc(Cl)sc12` (racemic) [Compound 89]: under setting [1], the IC90 was under 50 nM. Besides, the Emax under setting [2] is 99.3%. Consider `C[C@H]1C[C@@]2(C[C@@H](c3cn(CC(O)c4ccccc4)nn3)N1)OCC(F)(F)c1cc(Cl)sc12` (stereo partly drawn) [Compound 322], for which the IC90 under setting [1] fell in the range of 50 to 500 nM. Moreover, the “Multi-Tox Assay Max Activity (%)” value under setting [2] amounted to 97.0%. Consider `Cc1ccccc1C(O)Cn1cc([C@@H]2C[C@]3(C[C@H](C)N2)OCC(F)(F)c2cc(Cl)sc23)nn1` (stereo partly drawn) [Compound 304], for which the concentration for an effect of 90% (IC90) under setting [1] was 50 to 500 nM.
